Laboratory results published in article PMC12455996, “TGF-β inhibitor SB431542 suppresses SARS-CoV-2 replication through multistep inhibition” (Journal of Virology, 2025).

Molecular target: T1, SARS-CoV-2 ORF3a (Severe acute respiratory syndrome coronavirus 2, UniProt P0DTC3)
T1 construct: gene 3a
Test: isothermal titration calorimetry
Type: binding

T1 sequence (P0DTC3 whole entry): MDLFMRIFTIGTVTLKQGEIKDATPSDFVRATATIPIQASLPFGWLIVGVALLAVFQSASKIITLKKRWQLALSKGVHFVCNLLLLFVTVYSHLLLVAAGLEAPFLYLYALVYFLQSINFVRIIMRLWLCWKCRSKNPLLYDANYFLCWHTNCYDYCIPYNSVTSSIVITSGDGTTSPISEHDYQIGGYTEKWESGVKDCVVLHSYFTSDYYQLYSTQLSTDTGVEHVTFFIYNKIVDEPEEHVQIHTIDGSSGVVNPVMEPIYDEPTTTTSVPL

NC(=O)c1ccc(-c2nc(-c3ccc4c(c3)OCO4)c(-c3ccccn3)[nH]2)cc1 [SB431542] was tested, and the Kd was 220 ± 68.1 nM.
